Test results reported in patent US4183929A, “Tri-substituted triazines” (American Cyanamid Company, priority 1978, dated 1980).

Key:
[1] = test system: citrated sheep plasma (CSP); assay: In vitro anti-coagulant activity (AC) test; format: biochemical; conditions: for AC Wells: Table I, twofold serial dilution, recalcified citrated sheep plasma; for In Vitro Activity Anti-Coagulant Activity (Wells) AC: Table II
Method: The sheep RBC's, kept in suspension throughout the slotting incubation time, become enmeshed in the fibrin matrix if a clot forms. Upon centrifugation of the plate, untrapped RBC's form buttons, the sizes of which correspond to the degree of clot inhibition; this providing a measure of anti-coagulant activity (AC).

shunt pathway = assay: Test, Code 036 (C-Shunt inhibitor), lysis of human erythrocytes via cobra venom factor activated shunt pathway; format: cell-based; conditions: Table I; twofold serial dilution
Excerpt: An active inhibitor protects C2 from C1 and C4; (ii) Test, Code 035 (C3-C9 inhibitor) - This test determines the ability of the late components of human complement (C3-C9) to lyse EAC 142 in the presence of appropriate dilutions of the test compound. An active inhibitor protects EAC 142 from lysis by human C3-C9; (iii) Test, Code 036 (C-Shunt inhibitor) - In this test human erythrocytes rendered fragile are lysed in autologous serum via the shunt pathway activated by cobra venom factor in the presence of appropriate dilutions of the test compound. Inhibition of the shunt pathway results in failure of lysis; (iv) Forssman Vasculitis Test - Here, the well known complement dependent lesion, Forssman vasculitis, is produced in guinea pigs by intradermal injection of rabbit anti-Forssman antiserum. […]

activated human C1 = target: T1, activated human C1 (Homo sapiens, UniProt P09871); assay: Test, Code 026 (C1 inhibitor); format: biochemical; conditions: for Cl 026 Wells: Table I, twofold serial dilution, higher well number indicates higher activity; for In Vitro Activity Complment Inhibiting Activity (Wells) Code 026: Table II
T1 construct: fluid-phase human C2 consumption with C4 present
Excerpt: (§1) An active inhibitor protects C2 from C1 and C4; (ii) Test, Code 035 (C3-C9 inhibitor) - This test determines the ability of the late components of human complement (C3-C9) to lyse EAC 142 in the presence of appropriate dilutions of the test compound. An active inhibitor protects EAC 142 from lysis by human C3-C9; (iii) Test, Code 036 (C-Shunt inhibitor) - In this test human erythrocytes rendered fragile are lysed in autologous serum via the shunt pathway activated by cobra venom factor in the presence of appropriate dilutions of the test compound. Inhibition of the shunt pathway results in failure of lysis; (iv) Forssman Vasculitis Test - Here, the well known complement dependent lesion, Forssman vasculitis, is produced in guinea pigs by intradermal injection of rabbit anti-Forssman antiserum. The lesion is measured in terms of diameter, edema and hemorrhage and the extent to which a combined index of these is inhibited by prior intraperitoneal injection of the test compound at 200 mg is then reported, unless otherwise stated; (v) Forssman Shock Test--Lethal shock is produced in guinea pigs by an i.v. injection of anti-Forssman antiserum and the harmonic mean death time of treated guinea pigs is compared with that of simultaneous controls; (vi) Complement Level Reduction Test - In this test, the above dosed guinea pigs, or others, are bled for serum and the complement level is determined in undiluted serum by the capillary tube method of U.S. Pat. No. 3,876,376 and compared to undosed control guinea pigs; and (vii) Cap 50 Test - Here, appropriate amounts of the test compound are added to a pool of guinea pig serum in vitro, after which the undiluted serum capillary tube assay referred to above is run. The concentration of compound inhibiting 50% is reported.

[2] = test system: late components of human complement (C3-C9); assay: Test, Code 035 (C3-C9 inhibitor), lysis of EAC 142; format: biochemical; conditions: Table I; twofold serial dilution
Excerpt: as §1

[3] = Intrinsic Therapeutic Index (ITI) from Code 026 and AC wells; conditions: Table II; for Logarithmic Difference Expressed As Wells: Code 026 wells minus AC wells (base 2); for Intrinsic Therapeutic Index: antilogarithm (base 2) of the difference of Code 026 and AC wells
Excerpt: The computation of an Intrinsic Therapeutic Index (ITI) was devised to correlate the results expressed in wells obtained in the in vitro Code 026 (C1 inhibitor) test and the in vitro anti-coagulant (AC) test into a meaningful value which would aid in the net evaluation of the activity of the compounds of this invention.
The ITI is thus a measure of the separation of anti-complement and anti-coagulant activities; the higher the numerical value the more therapeutically useful the separation of activities.

T1 sequence (P09871 16-688): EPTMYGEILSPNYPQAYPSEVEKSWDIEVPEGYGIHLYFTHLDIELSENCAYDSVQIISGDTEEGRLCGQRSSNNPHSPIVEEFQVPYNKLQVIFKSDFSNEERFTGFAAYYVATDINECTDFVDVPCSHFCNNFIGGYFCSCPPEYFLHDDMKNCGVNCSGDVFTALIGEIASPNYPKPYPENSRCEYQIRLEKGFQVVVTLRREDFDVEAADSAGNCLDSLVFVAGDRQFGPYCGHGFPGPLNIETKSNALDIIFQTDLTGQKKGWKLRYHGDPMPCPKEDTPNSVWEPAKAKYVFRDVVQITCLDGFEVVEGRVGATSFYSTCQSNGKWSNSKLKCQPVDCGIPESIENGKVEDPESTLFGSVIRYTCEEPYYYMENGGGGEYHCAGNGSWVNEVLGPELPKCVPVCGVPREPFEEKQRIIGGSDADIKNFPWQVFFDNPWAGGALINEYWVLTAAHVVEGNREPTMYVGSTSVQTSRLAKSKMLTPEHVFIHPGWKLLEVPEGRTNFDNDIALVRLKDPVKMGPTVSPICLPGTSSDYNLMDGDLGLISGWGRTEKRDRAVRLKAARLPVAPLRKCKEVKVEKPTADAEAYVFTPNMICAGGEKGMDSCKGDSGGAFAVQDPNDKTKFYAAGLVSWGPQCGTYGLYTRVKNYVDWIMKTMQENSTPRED
T1 sequence (P00736 18-705 partner): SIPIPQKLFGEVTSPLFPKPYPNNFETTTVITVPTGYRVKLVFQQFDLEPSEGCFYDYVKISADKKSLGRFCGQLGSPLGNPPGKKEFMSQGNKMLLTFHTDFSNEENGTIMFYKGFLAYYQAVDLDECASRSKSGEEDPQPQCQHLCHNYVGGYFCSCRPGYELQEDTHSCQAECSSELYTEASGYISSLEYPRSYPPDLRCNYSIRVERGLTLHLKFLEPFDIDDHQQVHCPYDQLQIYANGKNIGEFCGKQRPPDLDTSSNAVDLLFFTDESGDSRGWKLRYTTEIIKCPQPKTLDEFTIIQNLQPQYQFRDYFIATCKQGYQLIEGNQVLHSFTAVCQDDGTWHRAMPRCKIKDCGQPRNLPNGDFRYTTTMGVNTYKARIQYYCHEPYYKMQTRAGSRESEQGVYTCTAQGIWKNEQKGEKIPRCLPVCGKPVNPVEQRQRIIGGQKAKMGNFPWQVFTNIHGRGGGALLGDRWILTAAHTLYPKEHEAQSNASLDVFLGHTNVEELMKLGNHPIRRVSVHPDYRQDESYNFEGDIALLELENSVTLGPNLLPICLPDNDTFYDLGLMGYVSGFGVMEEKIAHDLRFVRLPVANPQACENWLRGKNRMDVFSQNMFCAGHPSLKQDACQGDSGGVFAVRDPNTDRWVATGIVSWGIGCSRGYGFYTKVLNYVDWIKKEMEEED
T1 sequence (P02745 23-245 partner): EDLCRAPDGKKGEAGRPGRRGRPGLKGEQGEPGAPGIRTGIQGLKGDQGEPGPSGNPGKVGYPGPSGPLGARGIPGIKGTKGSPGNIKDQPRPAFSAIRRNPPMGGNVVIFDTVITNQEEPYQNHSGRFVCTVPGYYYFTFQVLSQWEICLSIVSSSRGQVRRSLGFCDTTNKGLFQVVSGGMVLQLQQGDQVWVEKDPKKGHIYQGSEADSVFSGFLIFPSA
T1 sequence (P02746 28-253 partner): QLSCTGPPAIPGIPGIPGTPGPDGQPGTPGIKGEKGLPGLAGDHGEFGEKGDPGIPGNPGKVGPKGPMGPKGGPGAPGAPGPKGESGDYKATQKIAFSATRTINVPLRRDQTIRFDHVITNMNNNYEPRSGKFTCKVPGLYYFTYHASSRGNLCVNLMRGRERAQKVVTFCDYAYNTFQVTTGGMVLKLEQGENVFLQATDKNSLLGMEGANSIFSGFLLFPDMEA
T1 sequence (P02747 29-245 partner): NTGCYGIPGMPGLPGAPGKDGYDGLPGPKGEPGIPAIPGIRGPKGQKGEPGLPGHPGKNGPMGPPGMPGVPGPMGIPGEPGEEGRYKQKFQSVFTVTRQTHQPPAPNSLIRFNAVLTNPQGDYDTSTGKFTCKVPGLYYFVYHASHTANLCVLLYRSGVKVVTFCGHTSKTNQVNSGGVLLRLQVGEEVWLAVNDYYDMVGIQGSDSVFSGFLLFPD

Compound | AC Wells [1] [Wells] | In Vitro Activity Anti-Coagulant Activity (Wells) AC [1] [Wells] | Shunt Inhibition 036 Wells (shunt pathway) | Cl 026 Wells (activated human C1) | In Vitro Activity Complment Inhibiting Activity (Wells) Code 026 (activated human C1) | C-Late 035 Wells [2] | Logarithmic Difference Expressed As Wells [3] | Intrinsic Therapeutic Index [3]
O=C([O-])c1cc(Nc2nc(Cl)nc(Nc3cc(C(=O)[O-])cc(C(=O)[O-])c3)n2)cc(C(=O)[O-])c1.[Na+].[Na+].[Na+].[Na+] [5,5'-[(6-Chloro-s-triazine-2,4-diyl)diimino]-diisophthalic acid tetrasodium salt] | < -2 | -2 | N | +3 Wells | +3 Wells | N | +5 Wells | 32
O=C([O-])c1cc(Nc2nc(Nc3cc(C(=O)[O-])cc(C(=O)[O-])c3)nc(Nc3cc(C(=O)[O-])cc(C(=O)[O-])c3)n2)cc(C(=O)[O-])c1.[Na+].[Na+].[Na+].[Na+].[Na+].[Na+] [5,5',5"-(s-Triazine-2,4,6-triyltriimino)triisophthalic acid hexasodium salt] | -2 | -2 | – | – | – | N | – | –
O=C(O)CN(CC(=O)O)c1nc(N(CC(=O)O)CC(=O)O)nc(N(CC(=O)O)CC(=O)O)n1 [(s-Triazine-2,4,6-triyltrinitrilo)hexaacetic acid] | -2 | -2 | N | +3 Wells | +3 Wells | N | +5 Wells | 32
